Measurements: US8906865B2, “Treatment of inflammation and/or endotoxic shock” (ISIS Innovation Limited, priority 2007, dated 2014)

System: C57B16/J mice, zymosan-induced peritonitis
Experiment: Zymosan-induced peritonitis in mice
Format: in vivo, mouse
Parameters: Reduction of MCP-1 in peritoneal lavage fluid (FIG. 7F) / Reduction of KC in peritoneal lavage fluid (FIG. 7F) / Reduction of TNFα in peritoneal lavage fluid (FIG. 7F) / Reduction of IL-1β in peritoneal lavage fluid (FIG. 7F) / Reduction of IL-6 in peritoneal lavage fluid (FIG. 7F): concentration or dose not given beside the values
Details: for Protection in vivo as judged by monocyte and neutrophil levels (FIG. 7C-D): same dose and time as C15
Method: FIGS. 7A and 7B—C57B16/J mice were dosed i.p with PBS or chemerin15 (0.32 ng/kg) followed by injection with PBS or zymosan (10 μg, ˜2×10^6 particles per cavity) 1 h later. Peritoneal exudate cells were harvested by peritoneal lavage at multiple time points (FIGS. 7A and 7B; 5-6 mice/treatment) or after 4 h (FIGS. 7C-7E; 6-15 mice/group). FIGS. 7C-7E—total cell numbers in lavage fluid were quantified and cellular composition (neutrophils vs mononuclear phagocytes) determined using FACS analysis. Cells were blocked with 2.4G2 anti-FcγRII/III and stained with Ly-6G-PE and 7/4-FITC. Gates were constructed around two populations, the neutrophils (N; 7/4high, Ly-6Ghigh) and inflammatory monocytes (Mo; 7/4high, Ly-6Glow). FIG. 7E—representative FACS plots are shown for each treatment group at 4 h post-zymosan. FIG. 7F—peritoneal lavage fluid was assayed for TNFα and KC by ELISA and IL-6, IL-1β and MCP-1 by Luminex assay. C15; Chemerin15, Z; Zymosan. ***, P<0.001; **, P<0.01 ** relative to zymosan-treated animals (Student's t test). FIG. 7G—Mice (6-8/treatment) were dosed i.p with zymosan (10 μg) and with C15 (8 pg) or PBS either 1 h beforehand (C15 pre-treatment) or 2 h later (C15 post-treatment). Peritoneal lavage was carried out 4 h post-zymosan challenge. Reference in this figure to the peptide C15 refers to the peptide described previously as C15m;
More specifically, male C57B16/J mice (8-12 weeks) were injected intra-peritoneally with 0.5 ml PBS or 0.5 ml Chemerin15-mouse (0.32 ng/kg) followed by injection with 0.5 ml PBS or Zymosan (2×10^6 particles per cavity) an hour later. After 4 hours animals were sacrificed and peritoneal cavities washed with 5 ml PBS-3 mM EDTA. Total cell counts were obtained using Trypan blue exclusion test. For determination of cellular composition (Neutrophils vs mononuclear phagocytes), cells were blocked with 2.4G2 mAB for 5 mins and stained with PE-conjugated anti-mouse Ly-6G and FITC-conjugated anti-mouse 7/4 mAB for 10 mins. Cells were fixed in 1% formaldehyde prior to FACS analysis with CellQuest software. Gates were constructed around two populations, the neutrophils (N; 7/4^high, Ly-6G^high) and inflammatory monocytes (Mo; 7/4^high). C15 refers to Chemerin15-mouse. Z refers to Zymosan. p<0.01 **; p<0.05 * relative to Zymosan-treated.
Neutrophil (7/4^high, Ly-6G^high), monocyte (7/4^high, Ly-6G^low) and resident macrophage populations (7/4^low, Ly-6G^low) were determined according to Gordon S and Taylor P R Nat Rev Immunol. 2005; 5(12):953; Taylor P R et al. Eur J Immunol. August 2003; 33(8):2090-2097; and Taylor P R et al. Eur J Immunol. July 2005; 35(7):2163-2174.
The above result was further investigated. To determine the anti-inflammatory properties of the C15 peptide in vivo a time-course experiment was performed extending over 48 h. Neutrophil (7/4high, Ly-6Ghigh) and monocyte (7/4high, Ly-6Glow) populations in peritoneal lavage fluid were determined by FACS analysis according to published protocols (Taylor, P. R. et al., (2005). Eur J Immunol 35:2163-2174; Taylor, P. R., (2003). Eur J Immunol 33:2090-2097). Administration of zymosan into the mouse peritoneal cavity produced a time-dependent extravasation of inflammatory cells into the peritoneal cavity, which followed the typical profile of an acute inflammatory response (FIG. 7A-B, solid line). Neutrophils were the first leukocytes to infiltrate the cavity, detectable at 2 h post-zymosan with peak neutrophilia occurring at 4 h (1.95×10^6 cells). Monocyte influx into the inflamed peritoneal cavity was first detectable after 4 h (0.69×10^6 cells), peaking at 24 h post-zymosan injection (1.25×10^6 cells) and declining thereafter. Pre-treatment with C15 at a dose of 8 pg/mouse (≈0.32 ng/kg) 1 h prior to zymosan challenge brought the peak neutrophilia forward to 2 h with approximately 50% the magnitude of that of zymosan challenged mice (reduced from 1.25×10^6 to 0.62×10^6 cells; FIG. 7A, dotted line). […]

[1] = 8 pg/mouse 1 h before zymosan, 4 h post-zymosan
[2] = 0.32 ng/kg (8 pg/mouse) i.p. 1 h before zymosan, 4 h
[3] = C15 2 h post-zymosan, lavage 4 h post-zymosan

Sequence: AGEDPHGYALPGQAA (Mutant C15) [C15-M, control peptide, mutant C15 (F148A & F153A), reference compound]
- Protection in vivo as judged by monocyte and neutrophil levels (FIG. 7C-D): not be protective

Sequence: AGEDPHGYFLPGQFA (listed as Mus sp.) [C15]
- Suppression of neutrophil infiltration (FIG. 7A) (8 pg/mouse 1 h before zymosan, 2 h post-zymosan): 50%
- Suppression of neutrophil infiltration (FIG. 7A) [1]: 66%
- Suppression of peritoneal monocytes (FIG. 7B) [1]: 63%
- Suppression of peritoneal monocytes (FIG. 7B) (8 pg/mouse 1 h before zymosan, 8 h post-zymosan): 61%
- Suppression of neutrophil infiltration (FIG. 7A) (8 pg/mouse 1 h before zymosan, 24 h post-zymosan): 50%
- Suppression of peritoneal monocytes (FIG. 7B) (8 pg/mouse 1 h before zymosan, 48 h post-zymosan): 64%
- Peritoneal neutrophils at 2 h (peak neutrophilia under C15) (8 pg/mouse 1 h before zymosan, zymosan alone 1.25×10^6): 0.62×10^6 cells
- Time of peak neutrophilia (8 pg/mouse 1 h before zymosan, zymosan alone 4 h): 2 h
- Reduction of Zymosan-elicited monocyte recruitment (FIG. 6) [2]: 42%
- Reduction of Zymosan-elicited neutrophil recruitment (FIG. 6) [2]: 52%
- Levels of TNFα in zymosan-treated mice (FIG. 6) (0.32 ng/kg i.p. 1 h before zymosan): reduced
- Rate of monocyte influx into the inflamed cavity (2-4 h post-zymosan, zymosan alone 0.51×10^6/h): 180000 h⁻¹
- Reduction of IL-1β in peritoneal lavage fluid (FIG. 7F) (4 h post-zymosan): 67%
- Reduction of IL-6 in peritoneal lavage fluid (FIG. 7F) (4 h post-zymosan): 67%
- Reduction of KC in peritoneal lavage fluid (FIG. 7F) (4 h post-zymosan): 38%
- Reduction of MCP-1 in peritoneal lavage fluid (FIG. 7F) (4 h post-zymosan): 59%
- Reduction of TNFα in peritoneal lavage fluid (FIG. 7F) (4 h post-zymosan): 51%
- Decrease in monocyte levels (FIG. 7D) (C15 1 h prior to zymosan, 4 h): 62%
- Decrease in neutrophil numbers (FIG. 7C) (C15 1 h prior to zymosan, 4 h): 63%
- Monocyte levels (FIG. 7D) (C15 1 h prior to zymosan, 4 h, zymosan alone 0.69×10^6): 0.30×10^6
- Neutrophil numbers (FIG. 7C) (C15 1 h prior to zymosan, 4 h, zymosan alone 1.9×10^6): 0.78×10^6
- Decrease in monocyte recruitment, C15 post-treatment (FIG. 7G) [3]: 42%
- Decrease in neutrophil recruitment, C15 post-treatment (FIG. 7G) [3]: 60%
- Monocyte number, C15 post-treatment (FIG. 7G) (C15 2 h post-zymosan, lavage 4 h post-zymosan, zymosan alone 0.69×10^6): 0.42×10^6 cells
- Neutrophil number, C15 post-treatment (FIG. 7G) (C15 2 h post-zymosan, lavage 4 h post-zymosan, zymosan alone 1.9×10^6): 0.83×10^6 cells
- Dose with efficacy against sterile peritonitis in mice (mouse, in vivo): 0.00032 µg/kg
- Dose giving maximal reduction in zymosan-elicited neutrophil and monocyte recruitment (single i.p. dose, 4 h post-zymosan): 8 pg/mouse

Sequence: GLFHDQAGPPAGYEF (Scrambled C15) [C15-S, control peptide, scrambled C15, reference compound]
- Protection in vivo as judged by monocyte and neutrophil levels (FIG. 7C-D): not be protective
